The values below come from patent publication US20080261986A1, “PHARMACEUTICAL FORMULATIONS FOR IONTOPHORETIC DELIVERY OF AN ANTI-FUNGAL DRUG” (priority 2007, published 2008).

Structures can show the parent of a compound that is named as a salt.

For orientation: solubility means the concentration that dissolves in the medium under given conditions. As a reminder, the MIC is the least concentration at which growth counts as inhibited.

The nature of data set [1]: Effect of Tween-20 and Tween-80 on terbinafine HCl solubility in water and PBS. Type of data set: physicochemical. The note with it: thermodynamic from solid, n = 3. Here is the method: The influence of Tween-20 and Tween-80 on terbinafine HCl solubility in water and PBS was determined. The drug was added to each of the solvents until visual saturation was obtained, then left at controlled temperature (19° C.) or 24 hours. The saturated solutions were filtered and drug solubility in the filtrate was determined by UV spectrophotometer.

A short description of data set [2]: Delivery from nail-only and nail and skin applicators, nail on agarose model. Type of data set: in vitro ADME. The note with it: for nail loading range: Coulombic dose range 2-60 mA*min. The source says:
In the nail and skin applicator, the drug was delivered to both the nail and the skin (not shown). In the nail and skin applicator, the polyurethane foam and the active electrode (Ag-C) extended past the toe nail and onto agarose to mimic skin delivery. The agarose was covered with fluorinated ethylene propylene (FEP) membrane with uniform 0.5 mm holes distributed 5 mm apart to mimic the semi-restrictive property of the skin. […] The applicator extensions were adhered down to the base of the glass plate where the agarose was placed. The saline presoaked (1 hr) toe nail was placed on the curved agarose gel (1% w/v) with a counter electrode on the bottom of the agarose (standard EKG AgCl electrode with hydrogel, […]). […] Passive delivery was also run for 1 hr without current. […] The amount of drug permeated through the nail and into the agarose was determined by extracting terbinafine using 0.1M HCl and analyzing the samples by HPLC. Additional terbinafine HCl delivery testing using both types of applicators at different Coulombic doses were performed on the nail on agarose model. […] These additional doses, along with the higher 60 mA*min dose, were plotted as terbinafine loading (mg/g) with respect to Coulombic dose (FIG. 9F).

Data set [3] relates to T. rubrum. As to the kind of experiment: Antifungal activity of terbinafine loaded nails, agar diffusion assay. Type of data set: cell-based. The protocol: The nail plates loaded with the formulation containing 4% terbinafine HCl, 21% ethanol (95%), 5% Tween-80, 40% glycerin, 0.3% HEC, 0.2% benzoic acid, 0.01% BHT, and 0.01% disodium EDTA (Formulation TPI-DF-507), by passive diffusion (15 or 60 min) or iontophoresis (Coulombic doses of 0.75, 3, 6, and 12 mA min corresponding to 0.25 mA/cm^2 for 15 min, 0.25 mA/cm^2 for 60 min, 0.5 mA/cm^2 for 60 min, and 1 mA/cm^2 for 60 min, respectively), were tested for antifungal activity. The inoculum, T. rubrum, (ATCC10218) was prepared in sterile saline from 7-10 days old cultures on PDA slants at 30° C. Terbinafine HCl loaded nail pieces (2˜3 mm squares) were placed on the Sabouraud Dextrose Agar plates (Oxoid, Napean, Ontario, Canada) inoculated with T. rubrum. The diameter (mm) of the zones of inhibition were measured using a dial caliper after 4 days of incubation at 30° C. and were compared with the standards. The zone of inhibition for the standards (known drug concentrations: 0.1, 0.2, 0.4, 0.5, 0.6, 0.8, 1.0. 2.0 and 3.0 μg of terbinafine HCl) were determined similarly by loading the drug on 6 mm paper blank disks (Becton Dickinson, Sparks, Md.). Subsequently, the terbinafine HCl standard curve generated was used to calculate the drug dosage out of the nail. […] Based on the passaging study, duration of release of active terbinafine HCl was determined.

Data set [4] concerns T. rubrum. The note with it: quoted in the T. rubrum agar study, organism not given; cited from earlier work.

`CN(C/C=C/C#CC(C)(C)C)Cc1cccc2ccccc12` [terbinafine HCl, (E)-N-(6,6-dimethyl-2-hepten-4-ynyl)-N-methyl-1-naphthylmethamine hydrochloride]: the solubility at 24 h in data set [1] (aqueous buffer, PBS, 19° C.) was 1320 µg/mL; in data set [1] (aqueous with cosolvent or surfactant or cyclodextrin, PBS and 5% Tween-20, 19° C.) it was 5220 ± 20 µg/mL; in data set [1] (aqueous with cosolvent or surfactant or cyclodextrin, PBS and 5% Tween-80, 19° C.) it was 6530 ± 60 µg/mL; in data set [1] (aqueous with cosolvent or surfactant or cyclodextrin, Water and 5% Tween-20, 19° C.), 10600 ± 660 µg/mL; in data set [1] (aqueous with cosolvent or surfactant or cyclodextrin, Water and 5% Tween-80, 19° C.), 11500 ± 640 µg/mL; in data set [1] (Distilled water, 19° C.) it was 6370 ± 310 µg/mL. Also, in data set [2] (1 h, 4 %), the “share of the permeated drug that passed through the nail” value is 8%. The “share of the total permeated drug which passed through areas surrounding the nail” value in data set [2] (1 h, 4 %) is on record as “Approximately 92%”. Also, the nail loading range in data set [2] (nail and skin applicator) was in the range of 20 to 90 µg/g; in data set [2] (nail only applicator), 124 to 588 µg/g. In data set [3] (Formulation TPI-DF-507, 4 days at 30° C.), the “zones of inhibition, iontophoresis loaded nails versus passive delivery controls” value was “Significantly larger zones of inhibition”. In data set [3] (serial passaging to freshly inoculated plates, 0.5 mA/cm^2 for 60 min), the “Duration of terbinafine HCl release from nail samples” value was “at least 36 days”. Further, the minimal inhibitory concentration (MIC) in data set [4] was 4 ng/mL.
